PMC5748833, “Synthesis and Biological Evaluation of Novel Hybrid Molecules Containing Purine, Coumarin and Isoxazoline or Isoxazole Moieties” (The Open Medicinal Chemistry Journal, 2017)
Values joined by “and” are separate entries in the source; they are usually repeats but may differ in a detail not shown here. Equal entries are not always repeated.

Key:
[1] = Inhibition of linoleic acid lipid peroxidation (AAPH); conditions: 100 μM compound, 37°C
Protocol: 2.2.2.3 Inhibition of linoleic acid lipid peroxidation
Production of conjugated diene hydroperoxide by oxidation of linoleic acid sodium salt in an aqueous solution was monitored at 234 nm. 2,2’-Azobis(2-amidinopropane) dihydrochloride (AAPH) was used as a free radical initiator. 10 μl of the 16 mM linoleic acid sodium salt solution was added to the UV cuvette containing 0.93 ml of 0.05 M phosphate buffer, pH 7.4 prethermostated at 37°C. The oxidation reaction was initiated at 37°C under air by the addition of 50 μl of 40 mM AAPH solution. Oxidation was carried out in the presence of 10 μl of the examined compounds (stock solution in DMSO). In the assay without antioxidant, lipid oxidation was measured in the presence of the same level of DMSO. The rate of oxidation at 37°C was monitored by recording the increase in absorption at 234 nm caused by conjugated diene hydroperoxides (Table 5). Trolox was used as a standard.
Anti-lipid peroxidation activity. The water-soluble azo compound AAPH has been extensively used as a clean and controllable source of thermally produced alkyl peroxyl free radicals, through spontaneous thermal decomposition. […] In the AAPH assay, the highly reactive alkylperoxyl radicals are intercepted mainly by a hydrogen atom transfer (HAT) from the antioxidant.

soybean lipoxygenase = target: T1, soybean lipoxygenase (Glycine max, UniProt P08170); assay: Soybean lipoxygenase inhibition in vitro; assay type: biochemical; conditions: for inhibition at 100 µM: read-out: %LOX @ 100μΜ; for %LOX @ 100μΜ: 100 μM compound; for IC50: read-out: LOX IC50 μΜ
T1 construct: purchased Sigma Chemical, Co. (St. Louis, MO, USA)
T1 sequence (P08170 1-839): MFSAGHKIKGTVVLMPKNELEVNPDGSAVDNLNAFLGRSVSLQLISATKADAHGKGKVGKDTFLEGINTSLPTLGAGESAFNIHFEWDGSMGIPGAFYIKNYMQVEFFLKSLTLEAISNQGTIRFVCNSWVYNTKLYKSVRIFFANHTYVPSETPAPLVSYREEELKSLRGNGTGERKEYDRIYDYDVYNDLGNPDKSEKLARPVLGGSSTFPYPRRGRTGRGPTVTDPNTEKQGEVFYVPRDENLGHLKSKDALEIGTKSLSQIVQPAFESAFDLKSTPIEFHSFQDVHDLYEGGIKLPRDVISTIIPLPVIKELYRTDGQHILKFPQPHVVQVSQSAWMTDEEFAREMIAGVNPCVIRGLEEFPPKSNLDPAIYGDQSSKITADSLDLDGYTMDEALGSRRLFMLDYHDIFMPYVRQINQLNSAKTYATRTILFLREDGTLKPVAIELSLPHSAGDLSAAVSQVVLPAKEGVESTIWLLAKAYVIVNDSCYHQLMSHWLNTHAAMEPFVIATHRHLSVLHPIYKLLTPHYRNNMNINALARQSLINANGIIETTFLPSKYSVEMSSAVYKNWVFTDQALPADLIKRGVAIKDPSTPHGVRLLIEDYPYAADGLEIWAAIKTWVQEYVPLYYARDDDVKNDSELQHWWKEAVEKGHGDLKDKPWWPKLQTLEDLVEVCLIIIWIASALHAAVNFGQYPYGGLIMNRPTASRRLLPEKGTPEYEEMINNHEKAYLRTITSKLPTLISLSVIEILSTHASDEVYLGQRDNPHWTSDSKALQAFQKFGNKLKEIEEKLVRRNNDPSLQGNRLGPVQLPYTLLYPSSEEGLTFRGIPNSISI
Protocol: 2.2.2.4 Soybean lipoxygenase inhibition study in vitro [14]
In vitro study was evaluated as reported previously. The tested compounds dissolved in ethanol were incubated at room temperature with sodium linoleate (0.1 mM) and 0.2 ml of enzyme solution (1/9 x10^-4 w/v in saline). […] Several concentrations were used for the determination of IC50 values (Table 5).
LO is the key enzyme in leukotriene biosynthesis. Leukotrienes derived from the biotransformation of arachidonic acid catalyzed by 5-lipoxygenase (5-LO), are important inflammatory mediators implicated in several diseases. LOs play a role in membrane lipid peroxidation by forming hydroperoxides in the lipid bilayer. […] Most of the LO inhibitors are antioxidants or free radical scavengers, since lipoxygenation occurs via a carbon-centered radical. The evaluation of the novel coumarin hybrids against soybean lipoxygenase LO was accomplished by the UV-based enzyme assay.

[2] = Reducing activity of the stable radical DPPH; conditions: 100 μM compound, after 20 min
Protocol: 2.2.2.1 Determination of the reducing activity of the stable radical 1, 1-diphenyl-picrylhydrazyl (DPPH)
To a solution of DPPH (100μM) in absolute ethanol an equal volume of the compounds dissolved in ethanol was added. As control solution ethanol was used. The concentration of the solutions of the compounds was 100μM. After 20 and 60 min at room temperature the absorbance was recorded at 517 nm (Table 5). NDGA was used as a standard.
The compounds were studied for their antioxidant activity by the use of the stable 2,2-diphenyl-1-picrylhydrazyl radical (DPPH) at concentration 0.1mM after 20 min. […] This purple colour generally disappears in the presence of an antioxidant. The reduction of absorbance is a measure of the free DPPH due to the action of the antioxidant. The antioxidant activity was expressed as the RA% (Reducing Activity). […] Within the group of derivatives 4 the presence of the morpholinyl or piperidinyl rings at position A as well as the carbonyl group at position B, hinder the interaction of the compounds to the free stable radical DPPH.

[3] = Competition of the tested compounds with DMSO for hydroxyl radicals; conditions: 100 μM compound, Fe3+/ascorbic acid, 30 min, 37°C
Protocol: 2.2.2.2 Competition of the tested compounds with DMSO for hydroxyl radicals
The hydroxyl radicals generated by the Fe ^3+ /ascorbic acid system, were detected according to Nash, by the determination of formaldehyde produced from the oxidation of DMSO. The reaction mixture contained EDTA (0.1 mM), Fe ^3+ (167 μM), DMSO (33 mM) in phosphate buffer (50 mM, pH 7.4), the tested compounds (concentration 0.1mM) and ascorbic acid (10 mM). After 30 min of incubation (37°C) the reaction was stopped with CCl3COOH (17% w/v) (Table 5). Trolox was used as a standard.
Superoxide (O2^-.) anion and hydroxyl radical (^.OH) are free radical species of potential importance. In the acidic conditions of ischemic brain, O2^-. is probably protonated to give HO2^-. species. Iron released from damaged brain cells is more likely to be readily available to catalyze the generation of OH radicals. Among the ROS, the hydroxyl (^•OH) free radical is possibly the most toxic, as it reacts with a number of biological important molecules. Polyunsaturated fatty acids are found in high concentrations in the CNS, and are particularly vulnerable by free radicals. Thus, we tried to test the ability of our compounds to scavenge hydroxyl radicals. […] All the derivatives of series 13 (except of 13i) present high antioxidant activity (80-100%) which is not able to be correlated with any specific structural characteristic since all contain a coumarin, a purine and an isoxazolyl moiery. […] It seems that the overall molar configuration influences the response. However, antioxidants with hydrophilic or lipophilic character are both needed to act as radical scavengers in the aqueous phase or as chain-breaking antioxidants in biological membranes.

SMILES | melting point [°C] | LP % @ 100μΜ (inhibition of lipid peroxidation) [1] | inhibition at 100 µM (soybean lipoxygenase) [%] | RA% @ 100μΜ (reducing activity, DPPH) [2] | ∙ΟΗ % @ 100μΜ (hydroxyl radical scavenging, percent inhibition of formaldehyde production) ([3]; 100 µM) | %LOX @ 100μΜ (soybean lipoxygenase) | IC50 (soybean lipoxygenase) | ∙ΟΗ % @ 100μΜ (hydroxyl radical scavenging, percent inhibition of formaldehyde production) [3] [%]
Cc1cc(=O)oc2cc(OCc3cc(Cn4cnc5c(N6CCCCC6)ncnc54)no3)ccc12 | 165 to 167 | – | – | – | – | – | – | –
O=c1ccc2ccc(OCC3=NOC(n4cnc5c(N6CCCC6)ncnc54)C3)cc2o1 (stereo not shown) | 200 to 202 | – | – | – | – | – | – | –
Cc1cc(=O)oc2ccc(OC(=O)C3CC(Cn4cnc5c(N6CCCC6)ncnc54)=NO3)cc12 (stereo not shown) | 192 to 193 | – | – | – | – | – | – | –
Cc1cc(=O)oc2ccc(OCC3CC(Cn4cnc5c(N6CCCCC6)ncnc54)=NO3)cc12 (stereo not shown) [4a, 4-methyl-6-({3-[(6-piperidin-1-yl-9H-purin-9-yl)methyl]-4,5-dihydroisoxazol-5-yl}methoxy)-2H-chromen-2-one] | 180 to 182 | 63% | 6 | – | – | – | – | –
Cc1cc(=O)oc2cc(OCC3CC(Cn4cnc5c(N6CCCCC6)ncnc54)=NO3)ccc12 (stereo not shown) [4c] | 186 to 187 | 65% | – | 17% | did not present any activity and no | no | – | –
Cc1cc(=O)oc2cc(OCC3CC(Cn4cnc5c(N6CCOCC6)ncnc54)=NO3)ccc12 (stereo not shown) [4d] | 194 to 196 | 21% | 44.5 | – | – | – | – | –
Cc1cc(=O)oc2cc(OCC3CC(Cn4cnc5c(N6CCCC6)ncnc54)=NO3)ccc12 (stereo not shown) [4e] | 190 to 192 | 65% | – | – | – | no | – | –
O=c1cc(OCC2CC(Cn3cnc4c(N5CCOCC5)ncnc43)=NO2)c2ccccc2o1 (stereo not shown) [4g] | 158 to 160 | 16% | 10 | – | – | 10% | – | –
Cc1cc(=O)oc2cc(OCCC3CC(Cn4cnc5c(N6CCCC6)ncnc54)=NO3)ccc12 (stereo not shown) [4j] | 178 to 180 | 32% | 37 | 44% | did not present any activity and no | – | – | –
Cc1cc(=O)oc2ccc(OC(=O)C3CC(Cn4cnc5c(N6CCCCC6)ncnc54)=NO3)cc12 (stereo not shown) [4k, 4-Methyl-2-oxo-2H-chromen-6-yl 3-[(6-piperidin-1-yl-9H-purin-9-yl)methyl]-4,5-Dihydroisoxazole-5-Carboxylate] | 179 to 181 | 57% | – | 12% | – | – | 10 µM | –
Cc1cc(=O)oc2ccc(OC(=O)C3CC(Cn4cnc5c(N6CCOCC6)ncnc54)=NO3)cc12 (stereo not shown) [4l] | 188 to 189 | 37.5% | – | 12% | – | – | 61 µM | –
Cc1cc(=O)oc2ccc(OCC3=NOC(Cn4cnc5c(N6CCCCC6)ncnc54)C3)cc12 (stereo not shown) [11a, 4-methyl-6-({5-[(6-piperidin-1-yl-9H-purin-9-yl)methyl]-4,5-dihydroisoxazol-3-yl}methoxy)-2H-chromen-2-one] | 148 to 150 | 44% | – | – | – | no | – | –
O=c1ccc2ccc(OCC3=NOC(Cn4cnc5c(N6CCCCC6)ncnc54)C3)cc2o1 (stereo not shown) [11g] | 184 to 185 | no | – | – | – | no | – | –
Cc1cc(=O)oc2cc(OCc3cc(Cn4cnc5c(N6CCOCC6)ncnc54)no3)ccc12 [13d] | 179 to 180 | no | – | no | – | no | – | –
O=c1ccc2ccc(OCc3cc(Cn4cnc5c(N6CCOCC6)ncnc54)no3)cc2o1 [13f] | 174 to 175 | 23% | 25 | no | – | – | – | –
O=c1ccc2ccc(OCc3cc(Cn4cnc5c(N6CCCC6)ncnc54)no3)cc2o1 [13g] | 176 to 178 | 43% | – | no | – | – | 62.5 µM and 62 µM | –
O=c1cc(OCc2cc(Cn3cnc4c(N5CCCCC5)ncnc43)no2)c2ccccc2o1 [13h] | 161 to 163 | 86% | – | no | – | – | 55 µM | –
O=c1ccc2ccc(OCc3cc(Cn4cnc5c(N6CCCCC6)ncnc54)on3)cc2o1 [15a, 7-({5-[(6-piperidin-1-yl-9H-purin-9-yl)methyl]isoxazol-3-yl}methoxy)-2H-chromen-2-one] | 140 to 142 | – | – | no | – | – | 55 µM | –
O=c1ccc2ccc(OCc3cc(Cn4cnc5c(N6CCCC6)ncnc54)on3)cc2o1 [15c] | 172 to 173 | 43% | 9 | no | – | 9% | – | –
CC(Cc1ccc(O)c(O)c1)C(C)Cc1ccc(O)c(O)c1 (stereo not shown) [NDGA, nordihydroguairetic acid, reference compound] | – | – | – | 87% | – | – | – | –
Cc1c(C)c2c(c(C)c1O)CCC(C)(C(=O)O)O2 (stereo not shown) [Trolox, reference compound] | – | 76% | – | – | – | – | – | 83
